Data set [1] in a line: Molar enthalpy of transition or fusion. To be noted: Crystal; DSC.
The conditions of data set [2]: Crystal; DTA.

The structures appear in SMILES notation. Numbers after ± are expanded uncertainties.

Regarding `CCCCCCCCCC` [decane], the “Molar enthalpy of transition or fusion” value in data set [1] turned out to be 6.89 ± 0.196 kcal/mol. Moreover, in data set [2], the Normal melting temperature is -28.52 ± 0.5 °C.
Consider `CCCCCCCCCCCC(=O)OCC` [ethyl dodecanoate], for which the “Molar enthalpy of transition or fusion” value in data set [1] was determined as 9.15 ± 0.263 kcal/mol. Also, the Normal melting temperature in data set [2] was -0.20 ± 0.5 °C.
For the compound `CCCCCCCCCCCCCCCC(=O)OCC` [ethyl hexadecanoate], in data set [2], the Normal melting temperature was found to be 24.78 ± 0.5 °C.

Source of the values: the NIST ThermoML archive (doi:10.1016/j.fluid.2016.01.044).
